What was measured:
[1] = system: LAB 110 Eatro strain of T. b. brucei; experiment: Acute Murine Model A [Murine Stage 1 HAT]; format: in vivo; details: for Mean Survival Days: mice infected with T. b. brucei, 10 mg/kg, BID, orally, 4 days
Description: Female Swiss Webster mice were inoculated with 250,000 parasites of the LAB 110 Eatro strain of T. b. brucei. 24 hrs post-infection, treatment was initiated by administration of a compound of the invention BID for 4 days with 20 mg/kg/dose (40 mg/kg/day) intraperitoneally (IP) or orally (PO), 5 mg/kg BID or 10 mg/kg BID orally (PO). 3 mice per group were treated with a particular compound of the invention. Mice were checked for parasitemia weekly by microscopic examination of smears prepared from tail vein blood. Animals remaining parasite free for more than 30 days beyond the end of the treatment period were considered cured. Control untreated animals typically succumbed to the infection within 4-5 days following i.p. inoculation with parasites. Mice were monitored for 30 days for survival. Pentamidine at 2 mg/kg IP was used as the positive control. After 10 days, 0% of the untreated mice were parasite free. After 10 days, 67% of mice treated PO with 10 mg/kg BID of N-(1-Hydroxy-3,4-dihydro-1H-benzo[c][1,2]oxaborinin-7-yl)-4-methoxy-benzamide (M19) were parasite free. After 30 days, 100% of mice treated PO with 10 mg/kg BID of 4-fluoro-N-(1-hydroxy-3,4-dihydro-1H-benzo[c][1,2]oxaborinin-7-yl)-2-trifluoromethyl-benzamide (M1) were parasite free.

MDCK-MDR1 cells = experiment: in vitro; format: in vitro ADME, canine; details: 3 μM test compound
Description: (§1) MDCK-MDR1 cells (Madin-Darby canine kidney cells transfected with the human MDR1 gene) (Dr. Piet Borst, NKI-AVL, Amsterdam, The Netherlands) were seeded at 300,000 cells per well onto microporous, polycarbonate membranes in 12 well Costar Transwell® plates (Corning, Corning, N.Y.). The medium was removed and replaced with fresh cell culture medium approximately 24 hours after plating. Cells attained confluency and were ready for use in the transport assay after 72 hours of incubation.
(§2) A stock solution of each compound was prepared in DMSO at a concentration of 10 mg/mL. Stock solutions were further diluted in DMSO to a concentration of 1 mM for use in the assay. The final assay concentration of test compound in each incubation mixture was 3 μM and the final concentration of DMSO was 0.3%.
(§3) Cell cultures were pre-incubated with Transport Medium (TM), consisting of Hanks Balanced Salt Solution (HBSS), 25 mM glucose, and 25 mM HEPES, with and without the known P-gp inhibitor GF120918 (2 μM final assay concentration), for 30-60 minutes prior to the addition of test and control compounds. Following the pre-incubation period, transepithelial electrical resistance (TEER) measurements were taken on each insert to insure the integrity of the monolayer. The range for TEER values was 45-85Ω·cm^2. Transport medium was removed. Fresh transport media (1.5 mL) with or without GF120918 was added to the basolateral chambers. Solutions of the test compound were diluted into TM and added to the appropriate wells in triplicate (400 μL/well) at a final concentration of 3 μM with and without GF120918. The final concentration of DMSO was 0.3%. Control compounds were tested in triplicate at a final concentration of 3 μM. Cell monolayers were incubated with shaking (160 rpm) at 37° C. with 5% CO2 in a humidified incubator for one hour. Following the incubation, all plates were removed from the incubator. Inserts were removed from the plates and TEER measurements were again taken on each insert prior to removing samples for analysis to ensure no degradation of the tight junctions during the assay. An aliquot was taken from each receiver and diluted 1:3 with organic solvent (methanol) to assess transport of each compound across the monolayer. An aliquot was taken from each donor and diluted 1:2 with organic solvent (methanol) and then again 1:50 with matrix (50% methanol/50% TM) to assess mass balance within the study. All samples were assayed for test compound concentrations by LC-MS/MS using electrospray ionization.

P-gp (human MDR1) = experiment: in vitro; format: in vitro ADME, canine; details: dog, MDCK-MDR1; 3 μM test compound; without GF120918; read-out: MDCK-MCR1 Papp
Description: as §1, §2, §3

[2] = system: TREU 667 strain of T. b. brucei; experiment: Chronic CNS Model [Murine Stage 2 HAT]; format: in vivo; details: treated on Day 21 (10 mg/kg), negative control
Description: Mice were infected with 10,000 parasites of the TREU 667 strain of T. b. brucei. Twenty one days post-infection mice were treated with a dose of between 6 and 100 mg/kg of a compound of the invention, either BID or QD for 7 days intraperitoneally (IP) or orally (PO). Positive control mice were treated with Diminazene (10 mg/kg, IP) on Day 4 post-infection. Negative control mice were treated with Diminazene (10 mg/kg, PO) on Day 21. Since Diminazene is not able to penetrate the CNS, mice treated at Day 21 are not able to cure the infection. Starting 1 week after treatment, mice were checked for parasitemia by microscopic examination of smears prepared from tail vein blood. Parasite positive animals were immediately removed from the cages and euthanized. Animals were considered to be cured of a CNS infection if they were aparasitemic for at least 180 days after the end of the treatment period.

Row | SMILES | Mean Survival Days [1] [days] | MDCK-MCR1 AQ (MDCK-MDR1 cells) | Papp at 1 h, 3 µM (P-gp (human MDR1)) [×10⁻⁶ cm/s] | day by which all animals relapsed to exhibit blood parasitemia [2] [days] | mice parasite free after 10 days ([1]; female Swiss Webster mice, PO 10 mg/kg BID for 4 days, after 10 days) [%]
1 | CC(C)(C)c1ccc(C(=O)Nc2ccc3c(c2)B(O)OCC3)cc1 [M14, 4-tert-Butyl-N-(1-hydroxy-3,4-dihydro-1H-benzo[c][1,2]oxaborinin-7-yl)-benzamide] | 3.6 |  |  |  | 
2 | O=S(=O)(Nc1ccc2c(c1)B(O)OCC2)c1ccc(Cl)cc1 [M43, 4-Chloro-N-(1-hydroxy-3,4-dihydro-1H-benzo[c][1,2]oxaborinin-7-yl)-benzenesulfonamide] |  | 0.05 | 64.9 |  | 
3 | Cc1ccc(S(=O)(=O)Nc2ccc3c(c2)B(O)OCC3)cc1 [M46, N-(1-Hydroxy-3,4-dihydro-1H-benzo[c][1,2]oxaborinin-7-yl)-4-methylbenzenesulfonamide] | 5 | 0.05 | 77.1 |  | 
4 | N=C(N)c1ccc(/N=N/Nc2ccc(C(=N)N)cc2)cc1 [Diminazene, reference compound] |  |  |  | ≤ 56 | 
5 | COc1ccc(C(=O)Nc2ccc3c(c2)B(O)OCC3)cc1 [M19, N-(1-Hydroxy-3,4-dihydro-1H-benzo[c][1,2]oxaborinin-7-yl)-4-methoxybenzamide] | 9 |  |  |  | 67
6 | O=C(Nc1ccc2c(c1)B(O)OCC2)c1ccccc1Br [M8, 2-Bromo-N-(1-hydroxy-3,4-dihydro-1H-benzo[c][1,2]oxaborinin-7-yl)-benzamide] | 5.6 |  |  |  | 
7 | O=C(Nc1ccc2c(c1)B(O)OCC2)c1ccc(Cl)cc1F [M29, 4-Chloro-2-fluoro-N-(1-hydroxy-3,4-dihydro-1H-benzo[c][1,2]oxaborinin-7-yl)-benzamide] | >30 | −0.04 | 80.4 |  | 
8 | CC1(C)COB(O)c2cc(NC(=O)c3ccc(F)cc3C(F)(F)F)ccc21 [M51] | 3.6 |  |  |  | 
9 | CC(C)c1ccc(S(=O)(=O)Nc2ccc3c(c2)B(O)OCC3)cc1 [M47, N-(1-Hydroxy-3,4-dihydro-1H-benzo[c][1,2]oxaborinin-7-yl)-4-isopropyl-benzenesulfonamide] | 9 | 0.04 | 64.8 |  | 
10 | O=C(Nc1ccc2c(c1)B(O)OCC2)c1ccccc1C(F)(F)F [M15, N-(1-Hydroxy-3,4-dihydro-1H-benzo[c][1,2]oxaborinin-7-yl)-2-trifluoromethyl-benzamide] | >30 |  |  |  | 
11 | COC(=O)c1ccc(C(=O)Nc2ccc3c(c2)B(O)OCC3)cc1 [M40, N-(1-Hydroxy-3,4-dihydro-1H-benzo[c][1,2]oxaborinin-7-yl)-terephthalamic acid methyl ester] | 4 |  |  |  | 
12 | O=C(Nc1ccc2c(c1)B(O)OCC2)c1ccc(Cl)cc1Cl [M27, 2,4-Dichloro-N-(1-hydroxy-3,4-dihydro-1H-benzo[c][1,2]oxaborinin-7-yl)-benzamide] | >30 | −0.03 | 85.1 |  | 
13 | CCc1ccc(C(=O)Nc2ccc3c(c2)B(O)OCC3)cc1 [M12, 4-Ethyl-N-(1-hydroxy-3,4-dihydro-1H-benzo[c][1,2]oxaborinin-7-yl)-benzamide] | 8 | −0.04 | 80.3 |  | 
14 | O=C(Nc1ccc2c(c1)B(O)OCC2)c1ccccc1Cl [M5, 2-Chloro-N-(1-hydroxy-3,4-dihydro-1H-benzo[c][1,2]oxaborinin-7-yl)-benzamide] | 7 | 0.1 | 70.7 |  | 

Reference: patent publication US8623911B2, “Boron-containing small molecules as anti-protozoal agent” (Anacor Pharmaceuticals, Inc., priority 2010, dated 2014)
